Several values for one entry are separate records, joined by “and”; a condition that tells them apart may be missing. Equal values may be shown once.
What was measured:
[1] = system: BGC823 human gastric adenocarcinoma; assay: Anti-BGC823 human gastric adenocarcinoma in BALB/c (nu/nu) nude mice; assay type: in vivo; set-up: tumor volume of BGC823-bearing nude mice / Tumor mass: unit not given here; conditions: for body weight of BGC823-bearing nude mice / tumor volume of BGC823-bearing nude mice: Sc; for body weight of BGC823-bearing nude mice: in g (unit assumed); for Inhibition rate: from average tumor mass vs model; for Tumor index: tumor mass/body weight
Method: Human resources gastric adenocarcinoma cell line BGC823 was cultured in the same condition as the experiment 4.
The body weight and the tumor volume were measured and recorded weekly. The tumor volume was calculated according to the formula below.
Tumors were departed and weighed. Tumor Index and inhibition rate were calculated as below: […]

HepG2 = assay: MTT inhibition of tumor cells in vitro (Example 3); assay type: cell-based, Human; conditions: 40 μg/mL, 48 hours
HT29 = assay: MTT inhibition of tumor cells in vitro (Example 3); assay type: cell-based, Human; conditions: 40 μg/mL, 48 hours
Method: (§1) Human resources tumor cell line […], […], HT29, MCF-7 and A875 were provided by Cancer Hospital, Chinese Academy of Medical Sciences.
(§2) Cells were passaged every 2 or 3 days, and all the experiments were carried out on exponentially growing cells.
(§3) All cells were cultured in a humidified atmosphere (5% CO2 and […]), and passaged every 2 or 3 days. Cells were harvested on exponentially growing phase, and cell suspension was prepared with 2×10^4 cells/mL, added with 100 μL per well of 96-well plates, and cultured for 24 h in incubator. 100 μL medium without cells was added per well as blank group.
(§4) Compound (1), (2), (3), (4), (7) or (8) was dissolved in DMSO respectively, and diluted with 1640 medium at a final concentration of 400 μg/mL, so as to that of the Cisplatin. Cells were divided into 9 groups, they were blank group, model group, Compound (1), (2), (3), (4), (7) and (8) groups, and Cisplatin group as the positive one, 6 wells per group.
(§5) Before drug administration, supernatant of each well was removed and fresh 1640 medium was added, 180 μL per well. Compounds and Cisplatin were added with 20 μL per well respectively at a final concentration of 40 μg/mL. Wells of blank and model groups were added with 0.5% DMSO, 20 μL per well. 48 hours later, 20 μL MTT was added per well and continued to culture for 4 hours, then the supernatant was replaced carefully and DMSO was added with 150 μL per well to end the experiment. The 96-well plates were shaken for 10 mins and read the absorbance at 490 nm. The Inhibition rate was calculated.
(§6) Inhibition rate=[(ODmodel−ODblank)−(ODdrugs−ODblank)]/(ODmodel−ODblank)×100%
(§7) The MTT experiment was repeated three times.

BGC823 = assay: MTT inhibition of tumor cells in vitro (Example 3); assay type: cell-based, Human; conditions: 40 μg/mL, 48 hours
Method: as §1, §2, §3, §4, §5, §6, §7

A875 = assay: MTT inhibition of tumor cells in vitro (Example 3); assay type: cell-based, Human; conditions: 40 μg/mL, 48 hours
Method: as §1, §2, §3, §4, §5, §6, §7

MCF-7 = assay: MTT inhibition of tumor cells in vitro (Example 3); assay type: cell-based, Human; conditions: 40 μg/mL, 48 hours
Method: as §1, §2, §3, §4, §5, §6, §7

HT29 human colon cancer = assay: Anti-HT29 human colon cancer in BALB/c (nu/nu) nude mice; assay type: in vivo; set-up: body weight of HT29-bearing nude mice / tumor volume of HT29-bearing nude mice / Tumor mass: unit not given here; conditions: for body weight of HT29-bearing nude mice / tumor volume of HT29-bearing nude mice: Sc; for Inhibition rate: from average tumor mass vs model; for Tumor index: tumor mass/body weight
Method: Human resources Colon cancer cell line HT29 was cultured in the same condition as the experiment 4. […] Mice were randomly assigned into 7 groups: […] The body weight and the tumor volume were measured and recorded weekly. The tumor volume was calculated according to the formula below. […] The tumors were departed and weighed.

HepG2 human heptoma = assay: Anti-HepG2 human heptoma in BALB/c (nu/nu) nude mice; conditions: for tumor volume of HepG2-bearing nude mice / body weight of HepG2-bearing nude mice: Sc; for Inhibition rate: from average tumor mass vs model; for Tumor index: tumor mass/body weight
Method: 70 male BALB/c (nu/nu) nude mice (18-20 g, License NO. SCXK (BJ) 2009-0017, National Institutes for Food and Drug Control.) were adaptively bred for one week, and then used in the following experiment.
Human resources hepatoma cell line HepG2 was cultured in RPMI-1640 medium containing 100 U/mL Penicillin and 100 μg/mL Streptomycin with 10% fetal bovine serum and maintained at 37° C. in a humidified atmosphere (5% CO2 and […]).
70 BALB/c (nu/nu) nude mice were adaptively bred for 1 week, HepG2 cells were inoculated subcutaneously into the back of nude mice, 1×10^7 cells per mouse. […] 3 days after inoculation, mice of every therapeutic group were all given the relevant compounds or drugs for 3 weeks, and others were given isodose physiological saline.
The body weight and the size of tumor were measured and recorded weekly. The tumor volume was calculated with the formula below:
tumor volume V=π/6×a×b^2 (a, b means the transverse and longitudinal length of tumor)
At the end of administration, mice were fastened for 8 hours, weighed the fasting body weight, dropped off eyeball to collect blood, centrifuged and collected serum for next experiment. The tumors were departed and weighed. Tumor Index and inhibition rate were calculated as below:
Tumor Index=Tumor mass (mg)/body weight of animal (g)
Inhibition rate=(Average tumor massControl group−Average tumor massadministration group)/Average tumor massControl group×100%
Mice in the model group were injected with sterile water (10 ml/kg BW), Sc. All the animals were treated at 9 am for 3 weeks.
Determination of body weights: Body weights of animals were weighed and recorded once a week.
Tumor measurement: The transverse and longitudinal lengths of tumor were measured with vernier caliper weekly.
End of the experiment: After mice being administrated for 3 weeks (21 days), the experiment was terminated.

[2] = 0 W, mg/kg BW: total saponins 1.5, Compound 1, combination 1 & 19, 5-FU 20
[3] = 1 W, mg/kg BW: total saponins 1.5, Compound 1, combination 1 & 19, 5-FU 20
[4] = 2 W, mg/kg BW: total saponins 1.5, Compound 1, combination 1 & 19, 5-FU 20
[5] = 3 W, mg/kg BW: total saponins 1.5, Compound 1, combination 1 & 19, 5-FU 20
[6] = BGC823-bearing nude mice, after 3 weeks
[7] = 1 W, mg/kg BW: total saponins 1.5, Compound 1, combination 1 & 19, PTX 20
[8] = 2 W, mg/kg BW: total saponins 1.5, Compound 1, combination 1 & 19, PTX 20
[9] = 3 W, mg/kg BW: total saponins 1.5, Compound 1, combination 1 & 19, PTX 20
[10] = HT29-bearing nude mice, after 3 weeks
[11] = 1 W, mg/kg BW: total saponins 1.5, Compound 1, combination 1 & 39, Cytoxan 40
[12] = 2 W, mg/kg BW: total saponins 1.5, Compound 1, combination 1 & 39, Cytoxan 40
[13] = 3 W, mg/kg BW: total saponins 1.5, Compound 1, combination 1 & 39, Cytoxan 40
[14] = HepG2-bearing nude mice, after 3 weeks

O=c1[nH]cc(F)c(=O)[nH]1 [Compound 5-FU, 5-FU, reference compound]
body weight of BGC823-bearing nude mice [1, 2]: 20.20 ± 1.23
tumor volume of BGC823-bearing nude mice [1, 3]: 931.38 ± 623.32
body weight of BGC823-bearing nude mice [1, 3]: 19.50 ± 1.51
tumor volume of BGC823-bearing nude mice [1, 4]: 1262.33 ± 764.46
body weight of BGC823-bearing nude mice [1, 4]: 18.20 ± 1.81
tumor volume of BGC823-bearing nude mice [1, 5]: 2212.36 ± 1196.96
body weight of BGC823-bearing nude mice [1, 5]: 16.70 ± 2.20
Inhibition rate [1, 6]: 54.85%
Tumor index [1, 6]: 0.08 ± 0.04

sinocrassuloside VIII [Compound (3)]
Inhibition rate, HepG2 (HepG2): 74.35 ± 1.51%
Inhibition rate, HT29 (HT29): 56.62 ± 4.24%
Inhibition rate, BGC823 (BGC823): 92.09 ± 1.13%
Inhibition rate, A875 (A875): 68.35 ± 5.37%
Inhibition rate, MCF-7 (MCF-7): 90.12 ± 7.43%

CCCCOC(=O)C1OC(O[C@H]2CC[C@]3(C)[C@H]4CC=C5[C@@H]6CC(C)(C)CC[C@]6(C(=O)OC6OC(C)C(OC(=O)/C=C\c7ccc(OC)cc7)C(OC(C)=O)C6OC6OC(C)C(O)C(O)C6O)[C@H](O)C[C@@]5(C)[C@]4(C)CC[C@H]3[C@]2(C)C=O)C(OC2OC(CO)C(O)C(O)C2O)C(OC2OCC(O)C(O)C2O)C1O (stereo partly drawn) [Compound (8), sinocrassuloside XIII]
Inhibition rate, HepG2 (HepG2): 41.25 ± 1.27%
Inhibition rate, HT29 (HT29): 77.22 ± 6.17%
Inhibition rate, BGC823 (BGC823): 56.00 ± 7.90%
Inhibition rate, A875 (A875): 55.32 ± 13.35%
Inhibition rate, MCF-7 (MCF-7): 61.32 ± 11.67%

CC(=O)O[C@H]1C(=O)[C@@]2(C)[C@H]([C@H](OC(=O)c3ccccc3)[C@]3(O)C[C@H](OC(=O)[C@H](O)[C@@H](NC(=O)c4ccccc4)c4ccccc4)C(C)=C1C3(C)C)[C@]1(OC(C)=O)CO[C@@H]1C[C@@H]2O [PTX, Paclitaxel, reference compound]
body weight of HT29-bearing nude mice (HT29 human colon cancer; 0 W, mg/kg BW: total saponins 1.5, Compound 1, combination 1 & 19, PTX 20): 20.60 ± 1.32
body weight of HT29-bearing nude mice (HT29 human colon cancer; [7]): 20.30 ± 1.68
tumor volume of HT29-bearing nude mice (HT29 human colon cancer; [7]): 943.55 ± 516.62
body weight of HT29-bearing nude mice (HT29 human colon cancer; [8]): 19.80 ± 1.77
tumor volume of HT29-bearing nude mice (HT29 human colon cancer; [8]): 996.66 ± 347.05
body weight of HT29-bearing nude mice (HT29 human colon cancer; [9]): 19.20 ± 1.37
tumor volume of HT29-bearing nude mice (HT29 human colon cancer; [9]): 801.38 ± 259.34
Inhibition rate (HT29 human colon cancer; [10]): 60.81%
Tumor index (HT29 human colon cancer; [10]): 0.06 ± 0.03

sinocrassuloside VI [Compound (1)]
tumor volume of HepG2-bearing nude mice (HepG2 human heptoma; [11]): 922.51 ± 624.95
tumor volume of HepG2-bearing nude mice (HepG2 human heptoma; [12]): 1060.32 ± 570.38
tumor volume of HepG2-bearing nude mice (HepG2 human heptoma; [13]): 1033.33 ± 656.54
Inhibition rate (HepG2 human heptoma; [14]): 80.05%
Tumor mass (HepG2 human heptoma; HepG2-bearing nude mice, after 3 weeks, mg/kg BW: total saponins 1.5, Compound 1, combination 1 & 39, Cytoxan 40): 0.59 ± 0.29
Tumor index (HepG2 human heptoma; [14]): 0.03 ± 0.01
body weight of BGC823-bearing nude mice [1, 2]: 20.30 ± 1.06
tumor volume of BGC823-bearing nude mice [1, 3]: 850.16 ± 539.70
body weight of BGC823-bearing nude mice [1, 3]: 21.50 ± 1.18
tumor volume of BGC823-bearing nude mice [1, 4]: 997.88 ± 499.61
body weight of BGC823-bearing nude mice [1, 4]: 22.70 ± 1.16
tumor volume of BGC823-bearing nude mice [1, 5]: 845.04 ± 239.21
body weight of BGC823-bearing nude mice [1, 5]: 23.70 ± 1.06
Inhibition rate [1, 6]: 64.54% and 61.54%
Tumor mass ([1]; BGC823-bearing nude mice, after 3 weeks, mg/kg BW: total saponins 1.5, Compound 1, combination 1 & 19, 5-FU 20): 1.05 ± 0.36
Tumor index [1, 6]: 0.04 ± 0.02
Inhibition rate, A875 (A875): 88.02 ± 12.57%
Inhibition rate, MCF-7 (MCF-7): 83.12 ± 2.33%
tumor volume of HT29-bearing nude mice (HT29 human colon cancer; [7]): 1094.99 ± 678.00
tumor volume of HT29-bearing nude mice (HT29 human colon cancer; [8]): 907.89 ± 738.11
tumor volume of HT29-bearing nude mice (HT29 human colon cancer; [9]): 814.93 ± 450.73
Inhibition rate (HT29 human colon cancer; [10]): 50.44%
Tumor mass (HT29 human colon cancer; HT29-bearing nude mice, after 3 weeks, mg/kg BW: total saponins 1.5, Compound 1, combination 1 & 19, PTX 20): 1.15 ± 0.52
Tumor index (HT29 human colon cancer; [10]): 0.05 ± 0.02

O=P1(N(CCCl)CCCl)NCCCO1 (stereo not drawn) [Cytoxan, reference compound]
body weight of HepG2-bearing nude mice (HepG2 human heptoma; 0 W, mg/kg BW: total saponins 1.5, Compound 1, combination 1 & 39, Cytoxan 40): 19.20 ± 0.63
body weight of HepG2-bearing nude mice (HepG2 human heptoma; [11]): 18.50 ± 1.08
tumor volume of HepG2-bearing nude mice (HepG2 human heptoma; [11]): 988.47 ± 705.60
body weight of HepG2-bearing nude mice (HepG2 human heptoma; [12]): 16.00 ± 1.41
tumor volume of HepG2-bearing nude mice (HepG2 human heptoma; [12]): 1220.93 ± 881.80
body weight of HepG2-bearing nude mice (HepG2 human heptoma; [13]): 14.70 ± 1.34
tumor volume of HepG2-bearing nude mice (HepG2 human heptoma; [13]): 1593.79 ± 955.17
Inhibition rate (HepG2 human heptoma; [14]): 70.46%
Tumor index (HepG2 human heptoma; [14]): 0.06 ± 0.02

sinocrassuloside XII [Compound (7)]
Inhibition rate, HepG2 (HepG2): 21.83 ± 1.53%
Inhibition rate, HT29 (HT29): 62.67 ± 3.12%
Inhibition rate, BGC823 (BGC823): 77.08 ± 5.73%
Inhibition rate, A875 (A875): 55.64 ± 9.88%
Inhibition rate, MCF-7 (MCF-7): 58.12 ± 6.26%

— patent US20170143748A1, “ANTI-TUMOR PHARMACEUTICAL APPLICATION OF PENTACYCLIC TRITERPENE SAPONIN COMPOUNDS OF SZECHUAN MELANDIUM ROOT” (priority 2014, published 2017)
